{
  "source": "patent US8372342B2",
  "about": "“Apparatus for monitoring thrombus formation and method of monitoring thrombus formation” (Fujimori Kogyo Co., Ltd., priority 2005, dated 2013)",
  "key": {"[1]": {"test_system": "thrombus formation in whole blood", "test": "Microchip pressure measurement, collagen/tissue thromboplastin chamber, blood anticoagulated with trypsin inhibitor and thrombin aptamers, released with antisense DNAs (Example 17 system)", "format": "cell-based", "from_the_text": "A microchip 300, where the substrate and the cover of the microchip shown in FIG. 9(B) and FIG. 9(C), respectively, made of the same materials as those of Example 7 were pressure-bonded, was used. The microchip 300 comprises a blood coagulation inhibitor inlet tube 322 and a discharge tube 313 which were connected to the substrate 100 as in the case with the discharge tube of Example 7. However, the grooves of the microchip 300 of FIG. 9 are all formed of 200 μm in depth. […] A solution was prepared such that 1 vial of the Sysmex Corporation PT reagent (tissue thromboplastin) was dissolved in 1 ml of purified water and then dialyzed in purified water, the dialyzed product in purified water was mixed with collagen type I (manufactured by Nitta Gelatin Inc.) at a ratio of 1:1. After that, the applied portion was dried at 4° C. in air and thrombus formation chamber 311 was covered, which was used as a thrombus inducing material 315. The blood was collected after the addition of an anticoagulation treatment agent such that the final concentrations of the respective components in the syringe were 25 μg/ml for maize-derived trypsin inhibitor, 10 μM for exosite I thrombin aptamer, 10 μM for exosite II thrombin aptarner (5′-[…]-3′: SEQ D NO. 3). Immediately before monitoring, the blood thus collected was added with antisense DNAs with respect to thrombin aptamers of exosite I and exosite II so that each of them would reach to a concentration of 40 μM. Then, a syringe (1 ml syringe, manufactured by Terumo Corporation) was filled with the blood and provided as the sample syringe 320 shown in FIG. 9. The My Flow (manufactured by Arbiotec Co., Ltd), which is a micro-feeding pump capable of monitoring the inner pressure of a liquid-feeding pump, was connected to a pressure inlet tube 317 shown in FIG. 9. Mineral oil was pressed into the microchip 300 from the top of the syringe 320 and the blood was pushed out into the microchip 300 at a flow rate of 50 μl/min, while the pressure exerted on the sample syringe 320 was monitored. […]"}, "[2]": {"test_system": "thrombus formation in citrate-treated blood", "test": "Thrombus formation monitoring in the FIG. 1 flow apparatus, collagen-coated constriction portion, citrate-treated blood released with CaCl2", "format": "cell-based", "conditions": "1 mg/ml added to solution A", "protocol": "An apparatus for monitoring thrombus formation illustrated in FIG. 1 is used to fill a syringe 20 with 50 ml of a citrate-treated blood (solution A) in which 9 parts by volume of the blood immediately after the blood sample is mixed with 1 part by volume of 3.2% sodium citrate, and to fill a syringe 21 with 10 ml of 0.2M CaCl2 (solution B). The syringes 20 and 21 are connected to transparent nylon tubes (inlet tube 11 and drug tube 12) with an inner diameter of 3 mm. Both tubes are joined together at a T-shaped joint (cheese) and then connected to a polycarbonate thrombus formation chamber 10 of 3 mm in inner diameter and 1 cm in length through a single nylon tube (inlet tube 11) of 3 mm in inner diameter and 3 cm in length. The thrombus formation chamber 10 itself is constructed as a removable cassette. The joint portion between the cassette and the nylon tube (inlet tube 11) is made liquid-tight via an O-ring made of silicon rubber. A glass member is fixed on the inside of the cassette by an epoxy-based adhesive, thereby forming a constriction portion 14. The constriction portion 14 is designed so that the most narrowed site of the constriction portion 14 may have an inner diameter (the maximum gap between the constriction portion 14 and the inner wall) of 1.5 mm. In addition, the thrombus formation chamber 10 is connected liquid-tight with a tube as a discharge tube 13 having the same diameter and formed of the same material through an O-ring made of silicon rubber, and thus a thrombus monitoring apparatus 1 as illustrated in FIG. 1 is manufactured. Note that flange-type pressure gauges 40 and 41 are mounted on parts of the inlet tube 11 and the discharge tube 13 near the thrombus formation chamber 10 via joints (cheeses), respectively. […]\nAn apparatus for monitoring thrombus formation 1 is prepared and thrombus formation is then monitored in a manner similar to Example 1, except that the solution A of Example 1 is further added with an unfractionated heparin (prepared from pig mucous) at a concentration of 1 mg/ml."}, "[3]": {"test_system": "plasma coagulation (APTT)", "test": "APTT measurement on plasma (Reference Experiment 2)", "format": "biochemical", "conditions": "plasma added with 500-μM exosite I recognizing thrombin aptamer", "protocol": "The measurement of APTT was carried out on […] of plasma with respect to each of sample A added with […] of physiological saline solution, sample B added with […] of 500-μM exosite I recognizing thrombin aptamer, and sample C added with 10 μl of a solution containing 500-μM exosite I recognizing thrombin aptamer and 1500-μM exosite I recognizing thrombin aptamer antisense DNA. The sample A was 44 seconds, the sample B was 2 minutes or more, and the sample C was 45 seconds."}, "blood coagulation [4]": {"test_system": "blood coagulation", "test": "Time taken for coagulation of blood in Eppendorf tubes (Reference Experiment 1)", "format": "cell-based", "protocol": "The blood immediately after blood sampling, the blood prepared by adding a volume of one tenth of 300 μg/ml of a maize-derived trypsin inhibitor to the first blood, and the blood prepared by adding a thrombin aptamer that recognizes exosite I to the second blood so as to be 5 μM in concentration were provided. Then, for these three kinds of the blood, the time taken for coagulation were measured in Eppendorf tubes (made of polypropylene). The sample was reversed up side down every one minute and the flowability thereof was confirmed.\nFurther, when 5 μM of a thrombin aptamer that recognizes exosite I and 5 μM of a thrombin aptamer that recognizes exosite II were used in combination, blood coagulation was not confirmed even after 3 hours even in the case of the blood free of the trypsin inhibitor."}, "[5]": {"test_system": "thrombus formation in citrate-treated blood", "test": "Thrombus formation monitoring in a glass tube chamber with collagen-immersed silk as thrombus inducing material", "format": "cell-based", "conditions": "0.1 mg/ml added to solution A; flown for 15 minutes", "method": "After flowing the solution A in the syringe 20 at 3 ml/min and the solution B in the syringe 21 at 0.3 ml/min for 15 minutes, the thrombus formation chamber 10 was detached and the inside thereof was then washed with a physiological saline solution."}, "blood coagulation [6]": {"test_system": "blood coagulation", "test": "Thromboelastogram waveform of coagulation (Reference Experiment 3)", "format": "cell-based", "conditions": "aptamers to exosite I and II; stored at room temperature for 15 minutes", "protocol": "FIG. 11(A) is a result obtained by analyzing a thromboelastogram waveform of coagulation by adding 10 μM of each of aptamers for exosite I and exosite II to the blood, and after storing the blood at room temperature for 15 minutes, adding 40 μM of each of antisense DNAs of both aptamer. FIG. 11(B) illustrates the thromboelastogram waveform of the blood just after blood sampling.\nFIG. 11(A) is an analysis of a waveform of coagulation with thromboelastogram by storing the blood added with […] of aptamers to exosite I and exosite II at room temperature for 15 minutes, and then by adding 40 μM of antisense DNAs of both aptamers. FIG. 11(B) is a thromboelastogram waveform of the blood just after blood sampling."}, "[7]": {"test_system": "thrombus formation in whole blood", "test": "Microchip pressure measurement, blood anticoagulated with citric acid and maize-derived trypsin inhibitor, released with calcium chloride (Example 20 system)", "format": "cell-based", "conditions": "2 μg/ml", "protocol": "The blood sampling was carried out with the addition of 3.2% citric acid so that the ratio of citric acid and the blood be 1:9. Further, the blood was added with a maize-derived trypsin inhibitor at a concentration of 25 μg/ml to carry out an anticoagulation reaction. Immediately after adding calcium chloride to the anticoagulated blood so that it should reach 15 mM with respect to the anticoagulated blood at the time of monitoring thrombus formation, the blood was added to a syringe (1-ml syringe, manufactured by Terumo Corporation), followed by inflowing the blood into the same microchip as that of Example 17 at a flow rate of 40 μl/min. Subsequently, a change in pressure was measured using the same system as that of Example 17. The pressure began to rise 15 minutes after starting the pressure measurement and it rose up to about 60 kPa.\nThe blood sampling was carried out with the addition of an anticoagulation treatment agent in manner similar to Example 20. Subsequently, the same procedure as that of Example 20 was carried out, except that ReoPro (LILLY Co., Ltd.) was added at a concentration of 2 μg/ml. The measurement of pressure was then performed. The pressure began to rise 20 minutes after starting the pressure measurement and it rose up to about 15 kPa after 25 minutes (FIG. 15)."}},
  "data": [
    {"molecule": "unfractionated heparin", "values": [
      {"measurement": "pressure rose up to", "setting": "[1]; 1 unit/ml, flow rate 50 μl/min", "result": "about 10 kPa"},
      {"measurement": "time after starting the measurement at which pressure began to rise", "setting": "[1]; 1 unit/ml, flow rate 50 μl/min", "result": 13, "unit": "min"},
      {"measurement": "thrombus in the thrombus formation chamber by visual observation after washing", "setting": "[2]", "result": "thrombus cannot be found"},
      {"measurement": "decrease in blood flow discharged from the discharge tube", "setting": "[2]; solutions flown for 10 minutes", "result": "no decrease in blood flow"},
      {"measurement": "pressure difference between inlet tube and discharge tube pressure gauges", "setting": "[2]; solutions flown for 10 minutes", "result": "no pressure difference"}
    ]},
    {"molecule": "5′-GGTTGGTGTGGTTGG-3′ (listed as DNA, chemistry not given here) [thrombin aptamer]", "values": [
      {"measurement": "APTT", "setting": "[3]", "result": "≥ 2", "unit": "min"},
      {"measurement": "coagulation time", "setting": "blood coagulation [4]; 5 μM exosite I thrombin aptamer added to the blood already containing trypsin inhibitor", "result": 62, "unit": "min"}
    ]},
    {"molecule": "CC1CNc2c(cccc2S(=O)(=O)N[C@@H](CCCNC(=N)N)C(=O)N2CC[C@@H](C)C[C@@H]2C(=O)O)C1", "note": "(stereo partly shown) [Argatroban]", "values": [
      {"measurement": "presence of thrombus in glass tube by visual observation after washing", "setting": "[5]", "result": "did not confirm the presence of thrombus"}
    ]},
    {"molecule": "thrombin aptamer that recognizes exosite I and thrombin aptamer that recognizes exosite II: combination of exosite I aptamer (SEQ ID NO. 1) and exosite II aptamer 5′-AGTCCGTGGTAGGGCAGGTTGGGGTGACT-3′ (SEQ ID NO. 3) (chain 1 GGTTGGTGTGGTTGG; listed as DNA, chemistry not given here)", "values": [
      {"measurement": "time without confirmed blood coagulation", "setting": "blood coagulation [4]; 5 μM of each aptamer in combination, blood free of the trypsin inhibitor", "result": "> 3", "unit": "h"},
      {"measurement": "effect on blood storage / coagulation by thromboelastogram", "setting": "blood coagulation [6]", "result": "allow the blood to be stored"}
    ]},
    {"molecule": "ReoPro: ReoPro (LILLY Co., Ltd.) (antibody, chains of the INN, looked up, V domains shown, Fab) VH: EVQLQQSGTVLARPGASVKMSCEASGYTFTNYWMHWVKQRPGQGLEWIGAIYPGNSDTSYIQKFKGKAKLTAVTSTTSVYMELSSLTNEDSAVYYCTLYDGYYVFAYWGQGTLVTVSA VL: EIVLTQSPVTLSVTPGDSVSLSCRASRDISNNLHWFQQTSHESPRLLIKYASQSMSGIPSRFSGSGSGTDFTLSINSVETEDFGMYFCQQTNSWPYTFGGGTKLEIK", "values": [
      {"measurement": "increase in pressure", "setting": "[1]; 50 μg/ml, measurement for 18 minutes", "result": "could not be confirmed"},
      {"measurement": "pressure rose up to", "setting": "[7]; after 25 minutes", "result": "about 15 kPa"},
      {"measurement": "time after starting the pressure measurement at which pressure began to rise", "setting": "[7]; flow rate 40 μl/min", "result": 20, "unit": "min"}
    ]}
  ]
}
